Assay results from US12697331B2, “Methods of use of T-type calcium channel modulators” (PRAXIS PRECISION MEDICINES, INC., priority 2020, dated 2026).
Structures can show the parent of a compound that is named as a salt.

Legend:
[1] = system: NREM sigma, EO and EC gamma absolute power; assay: Population PKPD modelling of EEG power versus model-predicted plasma concentration (NONMEM); assay type: in vivo, human
Method: The pharmacokinetic/pharmacodynamic (PKPD) effects of administration a compound of formula (II) on EEG were also evaluated. The recording of the NREM sigma absolute power was reported as a single summary value of a single night of sleep following each dose on pre-specified days (baseline and Days 4, 8 and 12 for Example 11, Part A and Days 10, 17, 24, and 31 for Part B, as set forth in Tables 22 and 23, above. Each NREM sigma absolute power value was paired with a model predicted average plasma concentration (Cave) that corresponded to the 24-hour EEG recording period on the respective study day. For example, if the period of EEG recording for an individual was from 6 am on Day 4 to 6 am on Day 5, then the corresponding Cave was calculated as the average of the individual's model-predicted concentrations (sampled every 30 minutes) from that same time period. The resulting PKPD data were analyzed in a mixed-effects modelling framework using NONlinear Mixed Effects Modeling (NONMEM) software. The change from baseline NREM sigma absolute power was specified as the outcome and the primary explanatory variable was the Cave of a compound of formula (II).
The eyes open (EO) and eyes closed (EC) gamma absolute power for each individual was also estimated at specific time points across the study days.
The population PK model was used to generate Cave for NREM sigma absolute power and concentrations for EO and EC gamma absolute power. For NREM sigma absolute power, the Cave was computed for the final day of each dose level over the EEG collection interval. For EO and EC gamma absolute power, concentrations at 4 hours post-dose and 23.75 hours post-dose were generated on the final day of each dose level. The final population PKPD models for NREM sigma absolute power and EO and EC gamma absolute power were then used to generate corresponding EEG responses.

hCav3.1 = molecular target: T1, hCav3.1 (Homo sapiens, UniProt O43497); assay: PatchXpress patch clamp, voltage dependent block (half-inactivated state, V0.5); assay type: cell-based; details: for Inhibition of hCav3.1 peak current, voltage dependent block (percent inhibition), mean: half-inactivated state (V0.5)
T1 construct: expressed in transfected cells; host or cells: HEK-293 (cultured under G418 selection)
T1 sequence (O43497 whole entry): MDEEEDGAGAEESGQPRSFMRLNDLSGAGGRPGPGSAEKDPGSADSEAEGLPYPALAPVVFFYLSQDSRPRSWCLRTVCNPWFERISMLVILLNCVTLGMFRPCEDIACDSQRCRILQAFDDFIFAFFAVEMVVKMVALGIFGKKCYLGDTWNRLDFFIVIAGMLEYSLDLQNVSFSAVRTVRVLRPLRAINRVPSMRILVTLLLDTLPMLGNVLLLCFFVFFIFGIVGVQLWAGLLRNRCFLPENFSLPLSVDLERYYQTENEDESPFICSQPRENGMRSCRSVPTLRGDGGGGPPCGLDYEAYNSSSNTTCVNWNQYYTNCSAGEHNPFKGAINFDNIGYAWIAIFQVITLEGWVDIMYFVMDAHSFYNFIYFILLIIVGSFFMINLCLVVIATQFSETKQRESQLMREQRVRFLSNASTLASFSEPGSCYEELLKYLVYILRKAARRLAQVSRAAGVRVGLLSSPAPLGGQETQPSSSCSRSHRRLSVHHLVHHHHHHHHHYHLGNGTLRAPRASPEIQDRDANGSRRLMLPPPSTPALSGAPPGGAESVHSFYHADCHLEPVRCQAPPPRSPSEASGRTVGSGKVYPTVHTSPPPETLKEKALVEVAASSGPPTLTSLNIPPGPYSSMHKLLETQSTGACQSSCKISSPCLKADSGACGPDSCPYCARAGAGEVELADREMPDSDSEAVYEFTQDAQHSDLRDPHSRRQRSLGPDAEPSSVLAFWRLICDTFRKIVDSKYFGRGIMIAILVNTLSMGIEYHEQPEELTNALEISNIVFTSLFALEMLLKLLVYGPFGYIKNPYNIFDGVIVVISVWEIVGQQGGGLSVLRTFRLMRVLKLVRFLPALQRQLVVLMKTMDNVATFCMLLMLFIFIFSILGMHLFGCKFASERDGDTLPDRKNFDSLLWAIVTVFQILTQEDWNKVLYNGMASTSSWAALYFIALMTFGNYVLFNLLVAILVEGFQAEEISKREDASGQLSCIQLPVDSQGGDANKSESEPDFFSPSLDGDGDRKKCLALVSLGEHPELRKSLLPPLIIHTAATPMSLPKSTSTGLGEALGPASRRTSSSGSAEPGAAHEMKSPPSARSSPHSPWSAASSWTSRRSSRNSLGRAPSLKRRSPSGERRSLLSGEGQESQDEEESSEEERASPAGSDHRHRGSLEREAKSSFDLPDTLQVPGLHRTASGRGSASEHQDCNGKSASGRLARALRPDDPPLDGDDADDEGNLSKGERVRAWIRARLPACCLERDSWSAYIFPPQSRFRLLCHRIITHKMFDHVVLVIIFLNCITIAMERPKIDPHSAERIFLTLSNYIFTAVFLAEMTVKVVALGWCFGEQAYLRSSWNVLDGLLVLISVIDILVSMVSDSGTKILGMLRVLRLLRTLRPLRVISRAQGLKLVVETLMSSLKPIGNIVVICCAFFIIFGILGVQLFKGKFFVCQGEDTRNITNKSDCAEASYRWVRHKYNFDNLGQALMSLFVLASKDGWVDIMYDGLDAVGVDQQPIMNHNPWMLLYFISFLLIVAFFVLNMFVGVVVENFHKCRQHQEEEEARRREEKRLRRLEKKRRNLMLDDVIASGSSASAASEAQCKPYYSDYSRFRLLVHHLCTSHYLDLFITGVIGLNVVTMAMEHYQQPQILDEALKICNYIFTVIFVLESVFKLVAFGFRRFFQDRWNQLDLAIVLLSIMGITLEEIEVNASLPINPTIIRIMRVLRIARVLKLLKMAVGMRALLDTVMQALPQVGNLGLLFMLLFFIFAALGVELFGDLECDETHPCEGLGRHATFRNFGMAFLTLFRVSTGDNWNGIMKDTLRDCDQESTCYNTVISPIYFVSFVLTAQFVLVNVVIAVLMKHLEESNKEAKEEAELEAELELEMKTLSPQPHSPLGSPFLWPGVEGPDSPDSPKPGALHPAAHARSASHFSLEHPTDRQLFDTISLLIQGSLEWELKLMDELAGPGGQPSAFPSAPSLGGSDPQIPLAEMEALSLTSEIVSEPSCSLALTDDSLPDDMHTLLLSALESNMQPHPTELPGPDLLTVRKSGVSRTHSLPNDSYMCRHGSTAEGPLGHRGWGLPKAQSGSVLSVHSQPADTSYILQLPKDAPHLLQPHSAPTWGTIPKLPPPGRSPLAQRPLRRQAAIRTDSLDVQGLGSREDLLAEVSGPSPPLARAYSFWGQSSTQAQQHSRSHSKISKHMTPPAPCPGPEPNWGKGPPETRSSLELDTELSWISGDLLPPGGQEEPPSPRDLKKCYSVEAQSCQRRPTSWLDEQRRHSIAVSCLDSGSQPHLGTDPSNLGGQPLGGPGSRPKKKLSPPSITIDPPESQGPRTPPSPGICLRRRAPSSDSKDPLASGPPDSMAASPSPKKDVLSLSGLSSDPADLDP
Method: (§1) The voltage dependence of calcium channel isoforms was determined by comparing the activity of resting (Tonic Block) and half-inactivated (Voltage Dependent Block) voltages across various concentrations of Formula (II). First, HEK-293 cells containing hCav3.1, hCav3.2, or hCav3.3 calcium channel isoforms were prepared by seeding at 2×10^6 cells per flask in culture for 2 days; the cells were then harvested at about 6×10^6 cells. Harvested cells were washed once in DPBS for approximately 30 minutes, and 1 mL of 1× (0.05%) Trypsin-EDTA was added, swirled, and allowed to sit on the cells for approximately 4 minutes. 10 mL of warmed DMEM high glucose media supplemented with 10% fetal bovine serum, 2 mM sodium pyruvate, 10 mM HEPES, and 400 μg/mL G418 was added, and the cells were triturated until a single cell suspension was […]. Cells were placed in a 250 mL centrifuge tube with 30 mL warmed media and gently rocked at 28° C. for approximately 1 hour. Cell aliquots of 5 mLs (1×10^6 cells) were then centrifuged at 100× for 2 minutes, and supernatant was removed. Next, 100 μl of external recording solution was added to the remaining cell pellet and triturated 20 times to achieve a single cell suspension.
(§2) Immediately prior to assay, Formula (II) was diluted with DMSO to 300× the designated final concentration. All studies were performed using the Molecular Devices PatchXpress automated patch clamp platform at room temperature.
(§3) Pharmacology was measured during Epoch 1. Percent inhibition was calculated as: 100*((([Step 2+Step 5]/2)−Step 3)/(Step 2+Step 5/2)), wherein Step 2 is the peak current measured at baseline, Step 5 is the current measured during the wash period, and Step 3 is the peak current measured during application of the compound. The average of the final 3 consecutive currents in each experimental procedure was used for all calculations. The concentration response curve was fit with a Hill equation to derive IC50, slope, minimum response, and maximum response fitting parameters.
(§4) To calculate the hCav3.1, hCav3.2, and hCav3.3 peak current from a half-inactivated state (voltage dependent block), currents were first evoked by depolarizing pulses to −25 mV (10 ms) from a non-inactivating holding potential (−120 mV) at a frequency of 0.1 Hz. After current amplitude became stable, the mid-point average of steady state inactivation was determined for each cell using a series of 9,900 ms conditioning steps to increasingly depolarize voltages (ranging from Vhold (−120 mV) to −40 mV) preceding a test pulse to −25 mV (10 ms) to establish the magnitude of inactivation. The holding command potential was then set to the voltage that produced approximately 50% inactivation (V0.5) using PatchXpress scripts. From this V0.5 potential, a voltage step to −25 mV (10 ms) was used to evoque peak current. The voltage was stepped to −120 mv (50 ms) to evoque tail currents and monitor cell integrity.
(§5) The effect of the compound on peak current amplitude was monitored using the voltage protocol described above and washed out after reaching steady state as determined by PatchXpress stability scripts. Washout was performed at the original holding potential of −120 mV to facilitate reversal of state-dependent interactions. Washout current for the calculation of inhibition was determined by resetting the holding potential to the previously determined half-inactivation potential (V0.5) and measuring peak current from this holding potential. Pharmacology was measured during Epoch 1, and percent inhibition was calculated as discussed above for tonic block.

hCav3.2 = molecular target: T2, hCav3.2 (Homo sapiens, UniProt O95180); assay: as above; assay type: cell-based; details: for Inhibition of hCav3.2 peak current, voltage dependent block (percent inhibition), mean: half-inactivated state (V0.5)
T2 construct: expressed in transfected cells; host or cells: HEK-293 (cultured under G418 selection)
Method: as §1, §2, §3, §4, §5

hCav3.3 [2] = molecular target: T3, hCav3.3 (Homo sapiens, UniProt Q9P0X4); assay: as above; assay type: cell-based; details: for Inhibition of hCav 3.3 peak current, voltage dependent block (percent inhibition), mean: half-inactivated state (V0.5)
T3 construct: expressed in transfected cells; host or cells: HEK-293 (cultured under G418 selection)
T3 sequence (Q9P0X4 whole entry): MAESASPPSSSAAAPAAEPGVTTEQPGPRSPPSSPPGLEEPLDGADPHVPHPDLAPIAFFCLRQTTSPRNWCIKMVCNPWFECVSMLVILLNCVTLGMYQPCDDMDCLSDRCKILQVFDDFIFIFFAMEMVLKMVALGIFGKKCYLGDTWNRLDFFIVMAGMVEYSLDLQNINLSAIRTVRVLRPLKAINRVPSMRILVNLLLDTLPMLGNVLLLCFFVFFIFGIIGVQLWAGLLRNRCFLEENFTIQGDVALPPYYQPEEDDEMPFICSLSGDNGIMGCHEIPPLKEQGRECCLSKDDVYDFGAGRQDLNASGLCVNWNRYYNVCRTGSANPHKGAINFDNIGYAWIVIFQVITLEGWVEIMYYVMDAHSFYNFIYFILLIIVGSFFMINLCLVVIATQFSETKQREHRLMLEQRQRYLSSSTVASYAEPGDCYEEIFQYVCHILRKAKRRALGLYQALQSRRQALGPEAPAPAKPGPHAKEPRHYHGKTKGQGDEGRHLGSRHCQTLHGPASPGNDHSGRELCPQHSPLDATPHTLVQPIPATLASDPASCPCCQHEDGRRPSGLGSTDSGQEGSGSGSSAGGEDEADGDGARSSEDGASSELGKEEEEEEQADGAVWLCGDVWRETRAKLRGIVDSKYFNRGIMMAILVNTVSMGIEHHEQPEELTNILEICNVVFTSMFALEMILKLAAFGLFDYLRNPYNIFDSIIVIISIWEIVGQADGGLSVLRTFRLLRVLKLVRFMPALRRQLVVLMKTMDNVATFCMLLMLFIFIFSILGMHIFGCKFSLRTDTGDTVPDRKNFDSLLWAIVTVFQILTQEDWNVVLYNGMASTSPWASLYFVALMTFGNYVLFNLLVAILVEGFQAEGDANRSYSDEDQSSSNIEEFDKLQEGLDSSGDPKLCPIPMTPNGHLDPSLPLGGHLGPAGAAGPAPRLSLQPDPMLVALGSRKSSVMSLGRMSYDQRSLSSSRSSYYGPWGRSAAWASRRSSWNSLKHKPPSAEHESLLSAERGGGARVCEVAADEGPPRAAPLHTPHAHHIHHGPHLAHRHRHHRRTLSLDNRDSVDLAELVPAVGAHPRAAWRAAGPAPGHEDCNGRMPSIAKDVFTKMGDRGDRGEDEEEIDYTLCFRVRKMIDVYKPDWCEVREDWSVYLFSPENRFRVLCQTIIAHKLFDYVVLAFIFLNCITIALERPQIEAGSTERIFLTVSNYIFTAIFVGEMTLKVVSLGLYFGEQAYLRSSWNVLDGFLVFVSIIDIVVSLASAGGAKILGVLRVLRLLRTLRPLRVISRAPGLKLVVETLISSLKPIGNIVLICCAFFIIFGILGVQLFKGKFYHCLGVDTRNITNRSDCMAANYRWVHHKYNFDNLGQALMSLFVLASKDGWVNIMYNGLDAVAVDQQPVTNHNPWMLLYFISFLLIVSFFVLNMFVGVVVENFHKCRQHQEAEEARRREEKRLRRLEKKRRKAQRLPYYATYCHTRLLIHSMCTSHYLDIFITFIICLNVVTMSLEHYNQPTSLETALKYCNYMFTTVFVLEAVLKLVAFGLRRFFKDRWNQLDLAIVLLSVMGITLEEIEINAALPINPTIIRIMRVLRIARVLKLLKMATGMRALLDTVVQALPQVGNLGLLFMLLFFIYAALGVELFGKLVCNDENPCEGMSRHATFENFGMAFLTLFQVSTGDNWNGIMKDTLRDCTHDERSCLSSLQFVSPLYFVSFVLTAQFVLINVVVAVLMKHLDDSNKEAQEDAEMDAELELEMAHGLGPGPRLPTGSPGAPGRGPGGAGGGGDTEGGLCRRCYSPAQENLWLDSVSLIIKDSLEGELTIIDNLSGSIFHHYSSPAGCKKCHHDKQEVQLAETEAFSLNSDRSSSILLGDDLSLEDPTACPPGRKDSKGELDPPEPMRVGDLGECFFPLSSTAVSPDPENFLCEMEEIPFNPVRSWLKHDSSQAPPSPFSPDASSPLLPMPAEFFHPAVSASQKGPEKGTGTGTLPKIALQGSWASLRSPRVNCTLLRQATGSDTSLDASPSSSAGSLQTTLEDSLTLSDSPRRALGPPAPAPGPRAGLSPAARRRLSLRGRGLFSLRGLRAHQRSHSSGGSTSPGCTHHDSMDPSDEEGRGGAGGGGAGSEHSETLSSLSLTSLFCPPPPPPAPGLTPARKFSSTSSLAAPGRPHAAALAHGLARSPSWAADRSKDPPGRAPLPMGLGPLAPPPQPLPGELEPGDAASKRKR
Method: as §1, §2, §3, §4, §5

[3] = Within-participant escalating dose trial Part B: safety and tolerability (TEAEs); assay type: in vivo, human; details: titration 20 to 120 mg per day; no maximum tolerated dosage identified; hydrochloride
hCav3.3 [4] = molecular target: T3, hCav3.3; assay: PatchXpress patch clamp, tonic block (resting state, -120 mV); assay type: cell-based
Method: as §1, §2
To determine the hCav3.1, hCav3.2, and hCav3.3 peak current from a resting, closed state (tonic block), currents were evokes by depolarizing pulses to −25 mV (10 ms) from −120 mV (a non-inactivated holding potential) at a frequency of 0.1 Hz. Peak current was defined as the peak inward current during Epoch 1 with no leak subtraction applied. Current stability was monitored, and the potency of each compound was determined using concentration response curves.
as §3

CC(C)(C)NC(=O)CN1CCC(CNC(=O)c2cc(F)cc(Cl)c2)CC1 [compound of formula (II), N-((1-(2-(tert-butylamino)-2-oxoethyl)piperidin-4-yl)methyl)-3-chloro-5-fluorobenzamide hydrochloride]
Cave at which maximum reduction in NREM sigma absolute power appeared to occur ([1]; model predicted average plasma concentration, titrated): greater than 180 ng/mL | C(t) at which maximum reduction in EC gamma absolute power appeared to occur ([1]; titrated up to 120 mg): > 300 ng/mL | C(t) at which maximum reduction in EO gamma absolute power appeared to occur ([1]; titrated up to 120 mg): > 300 ng/mL | Inhibition of hCav3.1 peak current, voltage dependent block (percent inhibition), mean (hCav3.1; 0.03 μm): 13.9 (12) | Inhibition of hCav3.1 peak current, voltage dependent block (percent inhibition), mean (hCav3.1; 0.09 μm): 29.7 (14) | Inhibition of hCav3.1 peak current, voltage dependent block (percent inhibition), mean (hCav3.1; 0.27 μm): 55.2 15) | Inhibition of hCav3.1 peak current, voltage dependent block (percent inhibition), mean (hCav3.1; 0.91 μm): 73.8 (9) | Inhibition of hCav3.1 peak current, voltage dependent block (percent inhibition), mean (hCav3.1; 2.74 μm): 84.6 (9) | Inhibition of hCav3.1 peak current, voltage dependent block (percent inhibition), mean (hCav3.1; 9.13 μm): 86.0 (7) | tonic block/voltage dependent block (TB/VDB) ratio (hCav3.1; hCav3.1): 3.8 | Inhibition of hCav3.2 peak current, voltage dependent block (percent inhibition), mean (hCav3.2; 0.03 μm): 16.6 (11) | Inhibition of hCav3.2 peak current, voltage dependent block (percent inhibition), mean (hCav3.2; 0.09 μm): 31.2 (7) | Inhibition of hCav3.2 peak current, voltage dependent block (percent inhibition), mean (hCav3.2; 0.27 μm): 48.4 (9) | Inhibition of hCav3.2 peak current, voltage dependent block (percent inhibition), mean (hCav3.2; 0.91 μm): 78.8 (12) | Inhibition of hCav3.2 peak current, voltage dependent block (percent inhibition), mean (hCav3.2; 2.74 μm): 91.6 (13) | tonic block/voltage dependent block (TB/VDB) ratio (hCav3.2; hCav3.2): 2.0 | Inhibition of hCav 3.3 peak current, voltage dependent block (percent inhibition), mean (hCav3.3 [2]; 0.03 μm): 12.9 (8) | Inhibition of hCav 3.3 peak current, voltage dependent block (percent inhibition), mean (hCav3.3 [2]; 0.09 μm): 26.9 (17) | Inhibition of hCav 3.3 peak current, voltage dependent block (percent inhibition), mean (hCav3.3 [2]; 0.27 μm): 58.7 (19) | Inhibition of hCav 3.3 peak current, voltage dependent block (percent inhibition), mean (hCav3.3 [2]; 0.91 μm): 76.9 (20) | Inhibition of hCav 3.3 peak current, voltage dependent block (percent inhibition), mean (hCav3.3 [2]; 2.74 μm): 89.4 (20) | Inhibition of hCav 3.3 peak current, voltage dependent block (percent inhibition), mean (hCav3.3 [2]; 9.13 μm): 92.9 (4) | tonic block/voltage dependent block (TB/VDB) ratio (hCav3.3 [2]; hCav3.3): 4.0 | Dose levels well-tolerated with a titrated dosing schedule [3]: up to 120 mg per day | Inhibition of peak current, tonic block, Mean (hCav3.3 [4]; 0.09 μm): 3.8 (7) % | Inhibition of peak current, tonic block, Mean (hCav3.3 [4]; 0.27 μm): 23.0 (11) % | Inhibition of peak current, tonic block, Mean (hCav3.3 [4]; 0.91 μm): 54.5 (5) % | Inhibition of peak current, tonic block, Mean (hCav3.3 [4]; 2.74 μm): 77.1 (6) % | Inhibition of peak current, tonic block, Mean (hCav3.3 [4]; 9.13 μm): 92.1 (5) % | Inhibition of peak current, tonic block, Mean (hCav3.3 [4]; 27.40 μm): 94.6 (5) %
